“Also recorded” adds a separate entry of the source.
Key:
[1] = system: skin damage induced by erlotinib; experiment: Improvement of skin damage caused by erlotinib administration, TEWL (Example 10); format: in vivo, C57BL6N mice; settings: 200 μM applied on the back once a day, five times a week; 7 weeks old or 6 months old mice; day 7 / day 12 (FIG. 19)
Description: Female […] mice (7 weeks old or 6 months old) were acclimatized to the experimental environment, and then hair was removed from their back under anesthesia. […] The control non-administered group received the 0.5% methylcellulose solution of the solvent in the same way. The control group applied with the solvent and the group applied with 200 μM apocynin received an aqueous solution of each preparation once a day, five times a week on the back. To the control solvent application group the solvent (50% ethanol/PBS) of apocynin was similarly applied.

[2] = system: SDS-induced skin roughness, medial forearm; experiment: Human skin roughness induced by 10% SDS (Example 18); format: in vivo
Description: Two subjects were administered with substances that promote the self-renewal ability of epidermal stem cells (apocynin, ebselen, and celecoxib) using a test of skin roughness induced by 10% sodium lauryl sulfate (SDS) solution (a test that serves as a standard for chemical-induced skin damage in humans), and the effect of the skin roughness-preventing or -ameliorating agent in improving skin roughness was evaluated. Six 1.5-cm square areas were placed on the subject's medial forearm, and each was subjected to the treatments below. • SDS non-treated (70% ethanol treatment) group • SDS treatment+solvent (50% ethanol/PBS) application group. • SDS treatment+apocynin (200 μM) solution application group • SDS treatment+ebselen (0.25%) solution application group. • SDS treatment+celecoxib (2%) solution application group A cotton ball permeated with 500 μL of 10% SDS solution (dissolved in 70% ethanol) was applied to the test area for 30 minutes each on day 0 and day 1. Apocynin was applied on day 0 before SDS treatment, applied after treatment, and then applied to the test area once daily until day 9. The TEWL at each test area was measured before and after SDS treatment, and daily from day 1 to day 7. For each area, the TEWL value before SDS treatment was subtracted from the TEWL value on the measurement day, and this value was defined as “ΔTEWL”, and this value was used for evaluation. The test area was photographed with a digital camera and with PRIMOS-CR (Canfield Scientific, Inc., USA, Integral Corporation), a high-resolution three-dimensional image analyzer. For the PRIMOS images, the Primos OMC3_22 software was used to measure the degree of skin roughness in terms of “Ry (maximum height)” and “Rz (ten-point average roughness)”, which are parameters representing surface roughness in the height direction. For each site, the value obtained by subtracting the Rz or Ry value of the SDS non-treated control from the Rz or Ry value on the measurement day was defined as “ΔRz” and “ΔRy”, and these values were used for evaluation.

[3] = system: upper cervical-dorsal skin of aged mice; experiment: Irritant skin disorder (dry eczema and alopecia) model induced by 100% ethanol in aged mice; format: in vivo; settings: continuously applied, aged mice (FIG. 20)
Excerpt: In the irritant skin disorder (dry eczema and alopecia) model induced by a high concentration of ethanol (100%) in the upper cervical-dorsal skin of aged mice, a substance (apocynin) that promotes the cell competitive ability of epidermal stem cells was continuously applied.

[4] = system: human epidermal keratinocytes; experiment: Colony formation assay using human epidermal keratinocytes; format: cell-based
Excerpt: To test whether COL17A1-mediated SCD maintains clonal proliferation of epidermal stem cell clones, the present inventors used a colony formation assay, which is an in vitro assay said to be the gold standard for assessing the self-renewal ability of epidermal stem cells, including cells in the tail epidermis.

COL17A1 = COL17A1 expression in human epidermal keratinocytes by high content imaging (HCS); format: cell-based
Description: The present inventors further searched for substances that induce or maintain the expression of COL17A1. Human epidermal keratinocytes were seeded in 384-well plates, cultured for 48 hours after addition of reagents, immunostained with an anti-COL17A1 antibody and a fluorescently labeled secondary antibody, and then the fluorescence intensity per cell was detected using a high content imaging system (HCS: High Content Screening). In addition to cell counting with DAPI, the expression level of COL17A1 was quantified.

UVB-irradiated back skin = experiment: Barrier function after UVB irradiation (Example 12); format: in vivo, Hairless mice HOS: HR-1
Description: Hairless mice HOS: HR-1 females (7 weeks old) were acclimatized to the experimental environment and then grouped into the 6 groups below, so that the body weight values were nearly uniform. • No ultraviolet irradiation group (n=2) • Ultraviolet (UVB) irradiation+solvent application group (n=4). • Ultraviolet (UVB) irradiation+200 nM apocynin application group (n=4). • Ultraviolet (UVB) irradiation+200 μM apocynin application group (n=4). • Ultraviolet (UVB) irradiation+2 μM Y-27632 application group (n=4). • Ultraviolet (UVB) irradiation+20 μM Y-27632 application group (n=4) In the above solution application group, aqueous solutions of each preparation were applied to hairless mice on their back once a day for five days, starting from the day before ultraviolet irradiation. UVB irradiation was carried out using a Yayoi ultraviolet irradiation system (Y-UV-Lab-K-D5 lamp type) at an intensity of 150 mJ/cm^2 once a day. The stratum corneum water content and TEWL of the irradiated area were measured for each group of mice on the fourth day after the start of ultraviolet irradiation. The measurements were performed using Corneometer CM825 and Tewameter TN300 (Courage+Khazaka, Integral Corporation, Germany) at specific sites on the back of the mice.

[5] = system: full thickness wounds in the skin of rodent tails; experiment: Full thickness wound healing in tail skin; format: in vivo, mice; settings: day 0, day 14, day 21 (FIG. 12)
Description: To test the above hypothesis, the present inventors performed a full-layer wound healing experiment using the tail skin of aged wild-type mice. […] Forced expression of hCOL17A1 by basal layer keratinocytes in mice also promoted wound healing (FIG. 12). […] To confirm the beneficial effects in vivo, these drugs were administered to full thickness wounds in the skin of rodent tails.

[6] = apocynin 200 μM, ebselen 0.25%, celecoxib 2%

SMILES: COc1cc(C(C)=O)ccc1O [Apocynin]
- TEWL under erlotinib administration [1]: significantly decreased
- skin roughness (analysis of skin texture from high-resolution photographs) [2, 6]: significantly reduced
- ΔRy [2, 6]: significantly decreased
- ΔRz [2, 6]: significantly decreased
- ΔTEWL [2, 6]: significantly decreased
- pigmentation / healing of the affected area ([2]; day 16, apocynin 200 μM (FIG. 31)): healed; also recorded: almost no pigmentation
- skin damage [3]: significantly reduced
- Colony area (control ratio) ([4]; Table 1): ⊚ (one double circle (⊚) indicates maintenance of 1.0-1.2-fold)
- Colony number (control ratio) ([4]; Table 1): ⊚ (one double circle (⊚) indicates maintenance of 1.0-1.2-fold)
- area of colonies per well ([4]; compared to the control (FIG. 16)): significantly increased
- number of colonies ([4]; compared to the control, n=3 wells (FIG. 13, FIG. 16)): significantly increased
- average size of the top five colonies ([4]; compared to the control, n=3 wells (FIG. 14)): significantly increased
- colony size ([4]; human epidermal keratinocytes): significantly increased
- number of colonies with a diameter greater than 2 mm ([4]; n=3 wells (FIG. 13 right)): significantly increased
- COL17A1 expression level (control ratio) (COL17A1; Table 1, human epidermal keratinocytes, 48 hours after addition of reagents, fluorescence intensity per cell): ⊚ (one double circle (⊚) represents a 1.2-fold or greater increase)
- COL17A1 expression / amount of COL17A1 in cultured keratinocytes compared to the control (COL17A1; in vitro, HCS (FIG. 15)): significantly increased; also recorded: maintain or induce the COL17A1 expression; also recorded: induce the COL17A1 expression
- TEWL after ultraviolet irradiation (UVB-irradiated back skin; 200 µM administration group, UVB, fourth day (FIG. 21)): significantly lower
- water content of the stratum corneum after ultraviolet irradiation (UVB-irradiated back skin; 200 μM applied, UVB 150 mJ/cm^2, fourth day (FIG. 21)): significantly higher
- wound repair (unrepaired wound area) [5]: significantly accelerated; also recorded: significantly promote the wound repair process
